What follows are compounds tested on A. baumannii clinical isolate LAC 17 (assay: Antibiotic susceptibility profile). Conditions: not given.
Assay type: cell-based, Acinetobacter baumannii
Parameters: key: Resistance; Intermediate; Susceptible
Text: (§1) We obtained over thirty clinical isolates of A. baumannii from nosocomial infections in New York City and Los Angeles. […] Only antibiotics with breakpoints for A. baumannii were used. […] Isolates LA 01 to 20 were acquired from Los Angels County while NY-A to NY-H were obtained from New York City.
(§2) Antibiotic susceptibility profiles of clinical isolates of A. baumannii and reference strains. R, I, and S denote Resistance, Intermediate and Susceptible, respectively. Genetic Profiling of Clinical Isolates of A. baumannii

Compound | Antibiotic susceptibility
C[C@H]1COc2c(N3CCN(C)CC3)c(F)cc3c(=O)c(C(=O)O)cn1c23 [LVX, Levofloxacin] | R

These compounds were tested on A. baumannii clinical isolate LAC 05 (assay: Antibiotic susceptibility profile). Conditions: not given.
Assay type: cell-based, Acinetobacter baumannii
Parameters: key: Resistance; Intermediate; Susceptible
Text: as §1, §2

Compound | Antibiotic susceptibility
C[C@H]1COc2c(N3CCN(C)CC3)c(F)cc3c(=O)c(C(=O)O)cn1c23 [LVX, Levofloxacin] | R

Each compound was assayed on A. baumannii reference strain 19606 (assay: Antibiotic susceptibility profile). Conditions: strain 19606 (ATCC).
Assay type: cell-based, Acinetobacter baumannii
Parameters: key: Resistance; Intermediate; Susceptible
Text: as §1, §2

Compound | Antibiotic susceptibility
C[C@H]1COc2c(N3CCN(C)CC3)c(F)cc3c(=O)c(C(=O)O)cn1c23 [LVX, Levofloxacin] | S

The compounds below were run on A. baumannii clinical isolate LAC 13 (assay: Antibiotic susceptibility profile). Conditions: not given.
Assay type: cell-based, Acinetobacter baumannii
Parameters: key: Resistance; Intermediate; Susceptible
Text: as §1, §2

Compound | Antibiotic susceptibility
C[C@H]1COc2c(N3CCN(C)CC3)c(F)cc3c(=O)c(C(=O)O)cn1c23 [LVX, Levofloxacin] | R

The compounds below were run on A. baumannii clinical isolate LAC 11 (assay: Antibiotic susceptibility profile). Conditions: not given.
Assay type: cell-based, Acinetobacter baumannii
Parameters: key: Resistance; Intermediate; Susceptible
Text: as §1, §2

Compound | Antibiotic susceptibility
C[C@H]1COc2c(N3CCN(C)CC3)c(F)cc3c(=O)c(C(=O)O)cn1c23 [LVX, Levofloxacin] | R

These compounds were tested on A. baumannii reference strain AYE (assay: Antibiotic susceptibility profile). Conditions: not given.
Assay type: cell-based, Acinetobacter baumannii
Parameters: key: Resistance; Intermediate; Susceptible
Text: as §1, §2

Compound | Antibiotic susceptibility
C[C@H]1COc2c(N3CCN(C)CC3)c(F)cc3c(=O)c(C(=O)O)cn1c23 [LVX, Levofloxacin] | I

What follows are compounds tested on A. baumannii clinical isolate NY A (assay: Antibiotic susceptibility profile). Conditions: not given.
Assay type: cell-based, Acinetobacter baumannii
Parameters: key: Resistance; Intermediate; Susceptible
Text: as §1, §2

Compound | Antibiotic susceptibility
C[C@H]1COc2c(N3CCN(C)CC3)c(F)cc3c(=O)c(C(=O)O)cn1c23 [LVX, Levofloxacin] | I

These compounds were tested on A. baumannii clinical isolate LAC 19 (assay: Antibiotic susceptibility profile). Conditions: not given.
Assay type: cell-based, Acinetobacter baumannii
Parameters: key: Resistance; Intermediate; Susceptible
Text: as §1, §2

Compound | Antibiotic susceptibility
C[C@H]1COc2c(N3CCN(C)CC3)c(F)cc3c(=O)c(C(=O)O)cn1c23 [LVX, Levofloxacin] | I

These compounds were tested on A. baumannii clinical isolate LAC 18 (assay: Antibiotic susceptibility profile). Conditions: not given.
Assay type: cell-based, Acinetobacter baumannii
Parameters: key: Resistance; Intermediate; Susceptible
Text: as §1, §2

Compound | Antibiotic susceptibility
C[C@H]1COc2c(N3CCN(C)CC3)c(F)cc3c(=O)c(C(=O)O)cn1c23 [LVX, Levofloxacin] | R

These compounds were tested on A. baumannii reference strain 17978 (assay: Antibiotic susceptibility profile). Conditions: strain 17978 (ATCC).
Assay type: cell-based, Acinetobacter baumannii
Parameters: key: Resistance; Intermediate; Susceptible
Text: as §1, §2

Compound | Antibiotic susceptibility
C[C@H]1COc2c(N3CCN(C)CC3)c(F)cc3c(=O)c(C(=O)O)cn1c23 [LVX, Levofloxacin] | S

Each compound was assayed on A. baumannii clinical isolate LAC 16 (assay: Antibiotic susceptibility profile). Conditions: not given.
Assay type: cell-based, Acinetobacter baumannii
Parameters: key: Resistance; Intermediate; Susceptible
Text: as §1, §2

Compound | Antibiotic susceptibility
C[C@H]1COc2c(N3CCN(C)CC3)c(F)cc3c(=O)c(C(=O)O)cn1c23 [LVX, Levofloxacin] | R

Each compound was assayed on A. baumannii clinical isolate LAC 07 (assay: Antibiotic susceptibility profile). Conditions: not given.
Assay type: cell-based, Acinetobacter baumannii
Parameters: key: Resistance; Intermediate; Susceptible
Text: as §1, §2

Compound | Antibiotic susceptibility
C[C@H]1COc2c(N3CCN(C)CC3)c(F)cc3c(=O)c(C(=O)O)cn1c23 [LVX, Levofloxacin] | R

The compounds below were run on A. baumannii clinical isolate NY G (assay: Antibiotic susceptibility profile). Conditions: not given.
Assay type: cell-based, Acinetobacter baumannii
Parameters: key: Resistance; Intermediate; Susceptible
Text: as §1, §2

Compound | Antibiotic susceptibility
C[C@H]1COc2c(N3CCN(C)CC3)c(F)cc3c(=O)c(C(=O)O)cn1c23 [LVX, Levofloxacin] | R

Each compound was assayed on A. baumannii clinical isolate LAC 08 (assay: Antibiotic susceptibility profile). Conditions: not given.
Assay type: cell-based, Acinetobacter baumannii
Parameters: key: Resistance; Intermediate; Susceptible
Text: as §1, §2

Compound | Antibiotic susceptibility
C[C@H]1COc2c(N3CCN(C)CC3)c(F)cc3c(=O)c(C(=O)O)cn1c23 [LVX, Levofloxacin] | R

The compounds below were run on A. baumannii clinical isolate NY B (assay: Antibiotic susceptibility profile). Conditions: not given.
Assay type: cell-based, Acinetobacter baumannii
Parameters: key: Resistance; Intermediate; Susceptible
Text: as §1, §2

Compound | Antibiotic susceptibility
C[C@H]1COc2c(N3CCN(C)CC3)c(F)cc3c(=O)c(C(=O)O)cn1c23 [LVX, Levofloxacin] | R

What follows are compounds tested on A. baumannii clinical isolate LAC 12 (assay: Antibiotic susceptibility profile). Conditions: not given.
Assay type: cell-based, Acinetobacter baumannii
Parameters: key: Resistance; Intermediate; Susceptible
Text: as §1, §2

Compound | Antibiotic susceptibility
C[C@H]1COc2c(N3CCN(C)CC3)c(F)cc3c(=O)c(C(=O)O)cn1c23 [LVX, Levofloxacin] | R

Each compound was assayed on A. baumannii reference strain 15839 (assay: Antibiotic susceptibility profile). Conditions: strain 15839 (ATCC).
Assay type: cell-based, Acinetobacter baumannii
Parameters: key: Resistance; Intermediate; Susceptible
Text: as §1, §2

Compound | Antibiotic susceptibility
C[C@H]1COc2c(N3CCN(C)CC3)c(F)cc3c(=O)c(C(=O)O)cn1c23 [LVX, Levofloxacin] | R

These compounds were tested on A. baumannii clinical isolate NY E (assay: Antibiotic susceptibility profile). Conditions: not given.
Assay type: cell-based, Acinetobacter baumannii
Parameters: key: Resistance; Intermediate; Susceptible
Text: as §1, §2

Compound | Antibiotic susceptibility
C[C@H]1COc2c(N3CCN(C)CC3)c(F)cc3c(=O)c(C(=O)O)cn1c23 [LVX, Levofloxacin] | R

The compounds below were run on A. baumannii clinical isolate LAC 09 (assay: Antibiotic susceptibility profile). Conditions: not given.
Assay type: cell-based, Acinetobacter baumannii
Parameters: key: Resistance; Intermediate; Susceptible
Text: as §1, §2

Compound | Antibiotic susceptibility
C[C@H]1COc2c(N3CCN(C)CC3)c(F)cc3c(=O)c(C(=O)O)cn1c23 [LVX, Levofloxacin] | R

What follows are compounds tested on A. baumannii clinical isolate LAC 20 (assay: Antibiotic susceptibility profile). Conditions: not given.
Assay type: cell-based, Acinetobacter baumannii
Parameters: key: Resistance; Intermediate; Susceptible
Text: as §1, §2

Compound | Antibiotic susceptibility
C[C@H]1COc2c(N3CCN(C)CC3)c(F)cc3c(=O)c(C(=O)O)cn1c23 [LVX, Levofloxacin] | R

What follows are compounds tested on A. baumannii clinical isolate LAC 03 (assay: Antibiotic susceptibility profile). Conditions: not given.
Assay type: cell-based, Acinetobacter baumannii
Parameters: key: Resistance; Intermediate; Susceptible
Text: as §1, §2

Compound | Antibiotic susceptibility
C[C@H]1COc2c(N3CCN(C)CC3)c(F)cc3c(=O)c(C(=O)O)cn1c23 [LVX, Levofloxacin] | R

What follows are compounds tested on A. baumannii clinical isolate NY H (assay: Antibiotic susceptibility profile). Conditions: not given.
Assay type: cell-based, Acinetobacter baumannii
Parameters: key: Resistance; Intermediate; Susceptible
Text: as §1, §2

Compound | Antibiotic susceptibility
C[C@H]1COc2c(N3CCN(C)CC3)c(F)cc3c(=O)c(C(=O)O)cn1c23 [LVX, Levofloxacin] | I

What follows are compounds tested on A. baumannii clinical isolate LAC 01 (assay: Antibiotic susceptibility profile). Conditions: not given.
Assay type: cell-based, Acinetobacter baumannii
Parameters: key: Resistance; Intermediate; Susceptible
Text: as §1, §2

Compound | Antibiotic susceptibility
C[C@H]1COc2c(N3CCN(C)CC3)c(F)cc3c(=O)c(C(=O)O)cn1c23 [LVX, Levofloxacin] | I

What follows are compounds tested on A. baumannii clinical isolate LAC 02 (assay: Antibiotic susceptibility profile). Conditions: not given.
Assay type: cell-based, Acinetobacter baumannii
Parameters: key: Resistance; Intermediate; Susceptible
Text: as §1, §2

Compound | Antibiotic susceptibility
C[C@H]1COc2c(N3CCN(C)CC3)c(F)cc3c(=O)c(C(=O)O)cn1c23 [LVX, Levofloxacin] | I

The compounds below were run on A. baumannii clinical isolate LAC 10 (assay: Antibiotic susceptibility profile). Conditions: not given.
Assay type: cell-based, Acinetobacter baumannii
Parameters: key: Resistance; Intermediate; Susceptible
Text: as §1, §2

Compound | Antibiotic susceptibility
C[C@H]1COc2c(N3CCN(C)CC3)c(F)cc3c(=O)c(C(=O)O)cn1c23 [LVX, Levofloxacin] | R

These compounds were tested on A. baumannii clinical isolate LAC 06 (assay: Antibiotic susceptibility profile). Conditions: not given.
Assay type: cell-based, Acinetobacter baumannii
Parameters: key: Resistance; Intermediate; Susceptible
Text: as §1, §2

Compound | Antibiotic susceptibility
C[C@H]1COc2c(N3CCN(C)CC3)c(F)cc3c(=O)c(C(=O)O)cn1c23 [LVX, Levofloxacin] | S

These compounds were tested on A. baumannii clinical isolate LAC 14 (assay: Antibiotic susceptibility profile). Conditions: not given.
Assay type: cell-based, Acinetobacter baumannii
Parameters: key: Resistance; Intermediate; Susceptible
Text: as §1, §2

Compound | Antibiotic susceptibility
C[C@H]1COc2c(N3CCN(C)CC3)c(F)cc3c(=O)c(C(=O)O)cn1c23 [LVX, Levofloxacin] | R

The compounds below were run on A. baumannii reference strain SDF (assay: Antibiotic susceptibility profile). Conditions: not given.
Assay type: cell-based, Acinetobacter baumannii
Parameters: key: Resistance; Intermediate; Susceptible
Text: as §1, §2

Compound | Antibiotic susceptibility
C[C@H]1COc2c(N3CCN(C)CC3)c(F)cc3c(=O)c(C(=O)O)cn1c23 [LVX, Levofloxacin] | S

Each compound was assayed on A. baumannii clinical isolate NY D (assay: Antibiotic susceptibility profile). Conditions: not given.
Assay type: cell-based, Acinetobacter baumannii
Parameters: key: Resistance; Intermediate; Susceptible
Text: as §1, §2

Compound | Antibiotic susceptibility
C[C@H]1COc2c(N3CCN(C)CC3)c(F)cc3c(=O)c(C(=O)O)cn1c23 [LVX, Levofloxacin] | R

The compounds below were run on A. baumannii clinical isolate LAC 15 (assay: Antibiotic susceptibility profile). Conditions: not given.
Assay type: cell-based, Acinetobacter baumannii
Parameters: key: Resistance; Intermediate; Susceptible
Text: as §1, §2

Compound | Antibiotic susceptibility
C[C@H]1COc2c(N3CCN(C)CC3)c(F)cc3c(=O)c(C(=O)O)cn1c23 [LVX, Levofloxacin] | R

What follows are compounds tested on A. baumannii clinical isolate NY C (assay: Antibiotic susceptibility profile). Conditions: not given.
Assay type: cell-based, Acinetobacter baumannii
Parameters: key: Resistance; Intermediate; Susceptible
Text: as §1, §2

Compound | Antibiotic susceptibility
C[C@H]1COc2c(N3CCN(C)CC3)c(F)cc3c(=O)c(C(=O)O)cn1c23 [LVX, Levofloxacin] | R

The compounds below were run on A. baumannii clinical isolate LAC 04 (assay: Antibiotic susceptibility profile). Conditions: not given.
Assay type: cell-based, Acinetobacter baumannii
Parameters: key: Resistance; Intermediate; Susceptible
Text: as §1, §2

Compound | Antibiotic susceptibility
C[C@H]1COc2c(N3CCN(C)CC3)c(F)cc3c(=O)c(C(=O)O)cn1c23 [LVX, Levofloxacin] | S

Reference: US20080090734A1, “DRUG SCREENING AND TARGET IDENTIFICATION USING SPR IMAGING OF TARGET PROTEIN ARRAYS” (The Trustees of California State University, priority 2006, published 2008)
